Results: PubChem BioAssay (NCI)
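Interpolation was linear, between the two tested concentrations surrounding the appropriate level; five concentrations were tested over 48 hours in 96-well plates. GI50: concentration for 50% inhibition of growth. TGI denotes the concentration required for complete inhibition of growth.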

How the values were obtained:
Experiment in all cases: DTP human tumour cell line panel, 48 h
A549 NSCLC = test system: A549 NSCLC
786-0 renal = test system: 786-0 renal
HCC-2998 colon = test system: HCC-2998 colon
K-562 leukemia = test system: K-562 leukemia
TK-10 renal = test system: TK-10 renal
HCT-116 colon = test system: HCT-116 colon
PC-3 prostate = test system: PC-3 prostate
BT-549 breast = test system: BT-549 breast
DU-145 prostate = test system: DU-145 prostate
HCT-15 colon = test system: HCT-15 colon
HOP-62 NSCLC = test system: HOP-62 NSCLC
MCF7 breast = test system: MCF7 breast
RPMI-8226 leukemia = test system: RPMI-8226 leukemia
UACC-257 melanoma = test system: UACC-257 melanoma
EKVX NSCLC = test system: EKVX NSCLC
SK-MEL-28 melanoma = test system: SK-MEL-28 melanoma
SF-539 CNS = test system: SF-539 CNS
SN12C renal = test system: SN12C renal
MDA-MB-231 breast = test system: MDA-MB-231 breast
COLO 205 colon = test system: COLO 205 colon
OVCAR-5 ovarian = test system: OVCAR-5 ovarian
MDA-MB-435 = test system: MDA-MB-435
HS 578T breast = test system: HS 578T breast
ACHN renal = test system: ACHN renal
NCI-H522 lung = test system: NCI-H522 lung
SF-295 CNS = test system: SF-295 CNS
UO-31 renal = test system: UO-31 renal
KM12 colon = test system: KM12 colon
OVCAR-8 ovarian = test system: OVCAR-8 ovarian
SNB-19 CNS = test system: SNB-19 CNS
SK-OV-3 ovarian = test system: SK-OV-3 ovarian
SR leukemia = test system: SR leukemia
SK-MEL-2 melanoma = test system: SK-MEL-2 melanoma
U251 CNS = test system: U251 CNS
OVCAR-3 ovarian = test system: OVCAR-3 ovarian
HOP-92 NSCLC = test system: HOP-92 NSCLC
HL-60(TB) leukemia = test system: HL-60(TB) leukemia
NCI-H460 lung = test system: NCI-H460 lung
SK-MEL-5 melanoma = test system: SK-MEL-5 melanoma
OVCAR-4 ovarian = test system: OVCAR-4 ovarian
UACC-62 melanoma = test system: UACC-62 melanoma
SF-268 CNS = test system: SF-268 CNS
CAKI-1 renal = test system: CAKI-1 renal
M14 melanoma = test system: M14 melanoma
LOX IMVI melanoma = test system: LOX IMVI melanoma
NCI/ADR-RES ovarian = test system: NCI/ADR-RES ovarian
T-47D breast = test system: T-47D breast
SW-620 colon = test system: SW-620 colon

## Oc1cccc(Nc2nc3ccccc3c3occc23)c1
A549 NSCLC
  GI50: 10.9 µM
  TGI: 22.8 µM
786-0 renal
  GI50: 9.73 µM
  TGI: 21.4 µM
HCC-2998 colon
  GI50: 2.67 µM
  TGI: 11.3 µM
K-562 leukemia
  GI50: 4.81 µM
  TGI: 55.8 µM
TK-10 renal
  GI50: 5.21 µM
  TGI: 12.2 µM
HCT-116 colon
  GI50: 17.3 µM
  TGI: 31.1 µM
PC-3 prostate
  GI50: 8.59 µM
  TGI: 21 µM
BT-549 breast
  GI50: 14.2 µM
  TGI: 27.2 µM
DU-145 prostate
  GI50: 12.2 µM
  TGI: 24.6 µM
HCT-15 colon
  GI50: 15 µM
  TGI: 33.8 µM
HOP-62 NSCLC
  GI50: 15.1 µM
  TGI: 33.5 µM
MCF7 breast
  GI50: 7.4 µM
  TGI: 21 µM
RPMI-8226 leukemia
  GI50: 4.98 µM
  TGI: 18.2 µM
UACC-257 melanoma
  GI50: 15.9 µM
  TGI: 29.4 µM
EKVX NSCLC
  GI50: 14.6 µM
  TGI: 28.5 µM
SK-MEL-28 melanoma
  GI50: 0.364 µM
  TGI: 12.5 µM
SF-539 CNS
  GI50: 16.1 µM
  TGI: 29.6 µM
SN12C renal
  GI50: 13.2 µM
  TGI: 25.9 µM
MDA-MB-231 breast
  GI50: 11.5 µM
  TGI: 27 µM
COLO 205 colon
  GI50: 13.8 µM
  TGI: 26.7 µM
OVCAR-5 ovarian
  GI50: 12.7 µM
  TGI: 25.3 µM
MDA-MB-435
  GI50: 3.04 µM
  TGI: 14.8 µM
HS 578T breast
  GI50: 13.9 µM
  TGI: 31.4 µM
ACHN renal
  GI50: 7.69 µM
  TGI: 21.4 µM
NCI-H522 lung
  GI50: 14.5 µM
  TGI: 28.8 µM
SF-295 CNS
  GI50: 2.34 µM
  TGI: 11.7 µM
UO-31 renal
  GI50: 10.5 µM
  TGI: 22.2 µM
KM12 colon
  GI50: 3.24 µM
  TGI: 13 µM
OVCAR-8 ovarian
  GI50: 13 µM
  TGI: 30.5 µM
SNB-19 CNS
  GI50: 10.5 µM
  TGI: 22.2 µM
SK-OV-3 ovarian
  GI50: 11.7 µM
  TGI: 23.9 µM
SR leukemia
  GI50: 1.38 µM
  TGI: 18.8 µM
SK-MEL-2 melanoma
  GI50: 13.2 µM
  TGI: 27.7 µM
U251 CNS
  GI50: 14 µM
  TGI: 27.2 µM
OVCAR-3 ovarian
  GI50: 2.09 µM
  TGI: 12.9 µM
HOP-92 NSCLC
  GI50: 9.07 µM
  TGI: 21.3 µM
HL-60(TB) leukemia
  GI50: 5.22 µM
  TGI: 61.7 µM
NCI-H460 lung
  GI50: 6.13 µM
  TGI: 20.2 µM
SK-MEL-5 melanoma
  GI50: 14 µM
  TGI: 27 µM
OVCAR-4 ovarian
  GI50: 3.8 µM
  TGI: 22.1 µM
UACC-62 melanoma
  GI50: 11.1 µM
  TGI: 23.1 µM
SF-268 CNS
  GI50: 4.39 µM
  TGI: 17.5 µM
CAKI-1 renal
  GI50: 2.04 µM
  TGI: 6.65 µM
M14 melanoma
  GI50: 14.9 µM
  TGI: 28.2 µM
LOX IMVI melanoma
  GI50: 3.25 µM
  TGI: 22.4 µM
NCI/ADR-RES ovarian
  GI50: 11.3 µM
  TGI: 23.4 µM
T-47D breast
  TGI: 21.2 µM
SW-620 colon
  GI50: 17.1 µM
  TGI: 30.8 µM
